Experimental data reported in patent US20240392383A1, “Cancer biomarkers for susceptibility to treatment by almitrine” (priority 2021, published 2024).
Where two headings read alike, the source gives them in different places.

Columns and labels:
CML [1] = conditions: cited from earlier work
MYC/Max = MYC/Max (Homo sapiens, UniProt P01106); conditions: cited from earlier work
[2] = reason for not being suitable for in vivo use [18]; cited from earlier work
AML cells = conditions: cited from earlier work
NCI-60 cancer cell lines = assay: CellMiner gene expression correlated with growth inhibition (%) at 10 μM (mean of NCI 1-dose and 5-dose protocols); type: cell-based, human
Description: Correlations first found using NCI COMPARE, with the aforementioned method, were then further corroborated using cancer gene expression data sourced from the CellMiner database. Indeed, the following NCI 1-dose and 5-dose anti-cancer data for almitrine dimesylate, with serial codes given that will be used to refer to each hereafter, was compared with cancer gene expression data sourced from CellMiner:
The CellMiner database includes five independent Human Genome gene expression data sets {accession numbers: GSE5949, GSE5720, GSE32474, GSE29682, GSE29288}, each of which can have multiple different transcript sequence probes for a single gene, wherein the mean expression for each gene was taken: within and across the different databases, which is distinct from NCI COMPARE where all expressions of different sequence transcripts for a gene were kept distinct without any averaging, and where there was no averaging across gene expression data sets, each was kept distinct. Although actually only four of these gene expression data sets in CellMiner were used to generate the mean for each gene expression: the single gene expression data set that used an Agilent instead of an Affymetrix microarray chip (GSE29288) was excluded from the mean because, to quote the CellMiner documentation: “Agilent probe(s) values are removed from cell line average intensity calculation due to normalization inconsistency with Affymetrix probesets”. […] So, the data set sourced from an Agilent microarray chip was not incorporated in the mean, but was instead used by itself separately for an independent verification. With much less data, the Agilent set is much less reliable than the mean of the 4 Affymetrix microarray data sets, but it is a nice independent adjudicator. This Agilent data set is not one of the six gene expression data sets at NCI COMPARE. By contrast, there is some overlap in the 4 CellMiner gene expression databases that were used for the mean and the 6 that were used with NCI COMPARE (some might be the same). […] Also, distinctly with the 4 Affymetrix microarray data sets in CellMiner, the mean expression for each gene was taken: averaging the expression of all the different sequence transcripts, across all the 4 used Affymetrix microarray data sets, for each gene. Moreover, this mean is very heavily weighted to a database that CellMiner has, and NCI COMPARE definitely doesn't, Accession number: GSE29682, because it tends to have many more probes for each gene than any other data set, indeed often more than all the others combined, each of which is an additional data point in the mean for each gene. […]

NCI-60 = NCI-60 testing; comparators e.g. carboplatin; reported in previous applications WO2019/012149A1; cited from earlier work
[3] = cited from earlier work
[4] = intravenous 459±155 mg almitrine dimesylate infused within 24 hours [16], cited from earlier work
CML [5] = assay: Anti-CML activity; type: cell-based; conditions: almitrine (or salt, solvate, hydrate, prodrug) and imatinib/dasatinib/nilotinib/radotinib/bosutinib/ponatinib; anticipated by the teaching of this disclosure

MYC/Max, sequence (P01106 whole entry): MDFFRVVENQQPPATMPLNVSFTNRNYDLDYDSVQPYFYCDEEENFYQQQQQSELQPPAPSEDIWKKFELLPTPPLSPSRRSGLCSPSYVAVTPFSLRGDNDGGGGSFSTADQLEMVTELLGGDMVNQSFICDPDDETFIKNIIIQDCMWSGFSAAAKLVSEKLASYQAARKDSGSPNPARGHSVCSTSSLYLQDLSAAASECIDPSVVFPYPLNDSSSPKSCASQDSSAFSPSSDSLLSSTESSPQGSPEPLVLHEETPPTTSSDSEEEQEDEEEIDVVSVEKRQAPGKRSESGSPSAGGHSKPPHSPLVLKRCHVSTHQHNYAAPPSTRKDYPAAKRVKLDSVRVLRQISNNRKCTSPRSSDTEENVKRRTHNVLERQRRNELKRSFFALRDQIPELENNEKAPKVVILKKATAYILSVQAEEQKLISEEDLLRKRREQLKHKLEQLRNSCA

For `CCc1ccc(/C=C2/SC(=S)NC2=O)cc1` [10058-F4], the “Anti-cancer activity in combination” value (CML [1]; 10058-F4 and imatinib [26]) is given as “synergistic anti-cancer activity”, the Anti-CML activity (CML [1]; [26]) is given as “exerts anti-CML activity” and the MYC/Max heterodimerization (MYC/Max; [18]) is given as “does disrupt MYC/Max heterodimerization”. The Affinity for target (MYC/Max; target MYC [18]) was “low affinity for target”, the Degradation [2] was “fast degradation” and the “Drug resistance of leukemic cells” value (AML cells; AML, Myc inhibition [39]) was “can overcome drug resistance”. For the same compound, the “Differentiation of AML cells” value (AML cells; [42]) was “causes AML cells to differentiate” and the “Apoptosis of AML cells” value (AML cells; at higher concentrations [42]) was “induces their apoptosis”.

With `C=CCNc1nc(NCC=C)nc(N2CCN(C(c3ccc(F)cc3)c3ccc(F)cc3)CC2)n1` [almitrine dimesylate] the “Anti-cancer activity vs SCAF11 minus RAPH1 gene expression (FIG. 1A bottom panel)” value (NCI-60 cancer cell lines; SCAF11 gene expression minus RAPH1 gene expression, CellMiner data) was “greater against cancers with greater value of SCAF11 gene expression minus RAPH1 gene expression”, the “Susceptibility to anti-cancer activity vs MYC oncogene expression (FIG. 1C)” value (NCI-60 cancer cell lines; gene MYC, CellMiner data) was “the more likely it is susceptible” and the “Anti-cancer activity vs RAPH1 gene expression (FIG. 1A middle panel)” value (NCI-60 cancer cell lines; gene RAPH1, CellMiner Affymetrix, Agilent and RNA-seq data) was “less against cancers with greater gene expression of RAPH1”. The “Anti-cancer activity vs SCAF11 gene expression (FIG. 1A upper panel)” value (NCI-60 cancer cell lines; gene SCAF11, CellMiner Affymetrix, Agilent and RNA-seq data) was “greater against cancers with greater gene expression of SCAF11”, the “Anti-cancer activity compared with present cancer drugs” value (NCI-60) was “greater anti-cancer activity than many present cancer drugs” and the “Side-effects in humans compared with present cancer drugs” value ([3]; humans) was “less, close to no, side-effects”. The Reversibility of side-effects ([3]; if side-effects occur [2]) was “reversible upon stopping the course in nearly all cases”, the Side-effects ([3]; patients taking it daily for <11 months) was “no side-effects in nearly every patient” and the Side-effects ([3]; patients taking it daily for >11 months to years [2]) was “side-effects in a very small minority of the many patients”. For the same compound, the Adverse effect ([4]; subjects with normal liver function) was “without any adverse effect” and the “Blood [lactate]” value ([4]; subjects with poor/impaired liver function) was “can potentially increase blood [lactate]”.

In the case of `C=CCNc1nc(NCC=C)nc(N2CCN(C(c3ccc(F)cc3)c3ccc(F)cc3)CC2)n1` [almitrine], the “Anti-CML activity in combination” value (CML [5]) was “synergistic anti-CML activity”.
